Patent US20080293683A1, “Hormone Replacement Therapy” (University of Kansas Medical Center, priority 2007, published 2008)
Read-outs that look alike come from different tables or passages of the source.

Assays:
recombinant human ERα = biological target: T1, recombinant human ERα (Homo sapiens, UniProt P03372); experiment: ERα binding assay: competition of [3H]E2 binding by competing estrogens; conditions: for RBAα % (relative binding affinity for ERα, of E2): calculated against E2 = 100; for binding affinity for ERα (in words): concentrations up to 1000 nM; for RBAα/RBAβ: ratio of relative binding affinities ERα over ERβ
T1 construct: purchased PanVera Corporation (Madison, Wis.); host or cells: baculovirus-mediated expression system
T1 sequence (P03372 1-595): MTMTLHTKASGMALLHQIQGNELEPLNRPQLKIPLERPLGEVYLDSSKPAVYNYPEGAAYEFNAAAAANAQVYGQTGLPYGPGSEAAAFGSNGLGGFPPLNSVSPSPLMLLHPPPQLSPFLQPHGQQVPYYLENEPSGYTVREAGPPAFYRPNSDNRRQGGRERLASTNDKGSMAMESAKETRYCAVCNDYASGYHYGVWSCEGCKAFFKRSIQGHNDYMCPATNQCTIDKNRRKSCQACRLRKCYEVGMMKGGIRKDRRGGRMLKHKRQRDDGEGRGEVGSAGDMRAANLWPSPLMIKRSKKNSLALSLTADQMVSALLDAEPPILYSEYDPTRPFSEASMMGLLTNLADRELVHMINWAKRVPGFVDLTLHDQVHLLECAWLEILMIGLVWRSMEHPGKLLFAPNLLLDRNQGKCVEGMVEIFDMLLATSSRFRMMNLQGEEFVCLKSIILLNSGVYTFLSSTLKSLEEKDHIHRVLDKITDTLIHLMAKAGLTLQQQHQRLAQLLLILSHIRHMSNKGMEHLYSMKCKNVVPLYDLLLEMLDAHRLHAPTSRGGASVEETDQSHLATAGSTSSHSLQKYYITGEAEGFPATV
Excerpt: (§1) The recombinant human ERα and ERβ proteins and bovine serum albumin (BSA) were obtained from PanVera Corporation (Madison, Wis.). According to the supplier, the recombinant human ERα and ERβ were produced in a baculovirus-mediated expression system, and they were soluble and functionally active, with post-translational modifications similar to those found in mammalian cells. See Reid et al., Human estrogen receptor-α: Regulation by synthesis, modification and degradation, Cell. Mol. Life.
(§2) The following buffer solutions were used in the ER binding assays, and they were prepared beforehand and stored at 4° C. The binding buffer consisted of 10% glycerol, 2 mM dithiothreitol, 1 mg/mL BSA and 10 mM Tris-HCl at pH 7.5. The ERα washing buffer contained 40 mM Tris-HCl and 100 mM KCl (pH 7.4), but the ERG washing buffer contained only 40 mM Tris-HCl (adjusted to pH 7.4). The 50% hydroxylapatite slurry was prepared first by vigorously mixing 10 g hydroxylapatite with 60 mL of the Tris-HCl solution (50 mM, pH 7.4). Hydroxylapatite was then allowed to settle for 20 minutes at room temperature, and the supernatant was decanted. The above procedures were repeated 10 times, and afterwards hydroxylapatite was kept in the 50 mM Tris-HCl solution overnight at 4° C. Hydroxylapatite slurry was then adjusted to an approximate final concentration of 50% (v/v) using the same Tris-HCl solution and stored at 4° C., and the slurry was stable for up to several months.
(§3) Note that all of the estrogens were initially dissolved in pure ethanol to a stock concentration of 1 mM, and then further diluted to 100 μM with 20% aqueous ethanol. […] Immediately before the addition of the ERα or ERβ protein, it was diluted in the binding buffer and mixed gently with repetitive pipettings. […] The incubation mixture was then mixed gently and thoroughly with repetitive pipettings. […] The binding mixture was incubated at room temperature for two hours. At the end of the incubation, 100 μL of the hydroxylapatite slurry was added to each tube and the tubes were incubated on ice for 15 minutes with 3 times of brief vortexing. An aliquot (1 mL) of the appropriate washing buffer was added, mixed, and centrifuged at 10,000 g for five minutes, and the supernatants were discarded. This wash step was repeated twice. Hydroxylapatite pellets were then resuspended in 200 μL ethanol (followed by another rinse with 200 μL ethanol), and then the content was transferred to scintillation vials (containing 4 mL of the scintillation fluid) for measurement of ^3H-radioactivity with a liquid scintillation counter (Packard Tri-CARB 2900 TR; Downers Grove, Ill.).
(§4) To calculate the specific binding (pmol/mL) of the human ERα or ERβ protein at each concentration point, the following equation was used: […]
(§5) When a lower radioligand concentration is used, the corresponding IC50 value will also be relatively lower, but when the radioligand concentration increases, the corresponding IC50 value will also increase. […] Since the RBA value is a parameter that is independent of the radioligand concentration used, we thus have placed more emphasis on the RBA values instead of the absolute IC50 values in interpreting the physiological meanings of the data from in vitro receptor competition assays.

recombinant human ERβ = biological target: T2, recombinant human ERβ (Homo sapiens, UniProt Q92731); experiment: ERβ binding assay: competition of [3H]E2 binding by competing estrogens; conditions: for RBAβ (%) (relative binding affinity for ERβ, of E2): calculated against E2 = 100; for binding affinity for ERβ (in words): concentrations up to 1000 nM
T2 construct: purchased PanVera Corporation (Madison, Wis.); host or cells: baculovirus-mediated expression system
T2 sequence (Q92731 whole entry): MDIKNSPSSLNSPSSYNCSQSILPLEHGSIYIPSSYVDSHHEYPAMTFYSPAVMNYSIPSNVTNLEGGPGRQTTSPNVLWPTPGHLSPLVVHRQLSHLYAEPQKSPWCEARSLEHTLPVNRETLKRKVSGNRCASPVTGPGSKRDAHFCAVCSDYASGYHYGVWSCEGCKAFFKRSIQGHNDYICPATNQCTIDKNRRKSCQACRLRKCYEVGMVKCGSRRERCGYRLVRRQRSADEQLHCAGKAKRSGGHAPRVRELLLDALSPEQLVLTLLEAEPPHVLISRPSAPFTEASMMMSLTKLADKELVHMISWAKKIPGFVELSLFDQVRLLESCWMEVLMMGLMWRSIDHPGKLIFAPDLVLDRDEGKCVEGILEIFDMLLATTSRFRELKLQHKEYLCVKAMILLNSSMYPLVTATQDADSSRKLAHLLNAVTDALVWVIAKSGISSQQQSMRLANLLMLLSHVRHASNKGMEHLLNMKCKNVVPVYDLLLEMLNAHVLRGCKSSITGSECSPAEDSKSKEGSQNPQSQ
Excerpt: as §1, §2, §3, §4, §5

[1] = [3H]E2 10 nM, competitor up to 1000 nM, read-out: ERβ IC50

Structure (SMILES) | RBAα % (relative binding affinity for ERα, of E2) (recombinant human ERα) | RBAα/RBAβ (recombinant human ERα) | IC50 (recombinant human ERα; read-out: ERα IC50) | RBAβ (%) (relative binding affinity for ERβ, of E2) (recombinant human ERβ) | binding affinity for ERβ (in words) (recombinant human ERβ) | IC50 (recombinant human ERβ; read-out: ERβ IC50) | IC50 (recombinant human ERβ) | also measured
C[C@]12CC[C@@H]3c4cc(N)c(O)cc4CC[C@H]3[C@@H]1CCC2=O [2-NH2-E1, 2-Aminoestrone] | 3% | 7.5 | 398 nM | 0.4% | very weak binding affinities | 2510 nM |  | binding affinity for ERα (in words) (recombinant human ERα): very weak binding affinities; RBAα/RBAβ (recombinant human ERα; listed as 2-aminoestrone): about 7.5
O=C(CC(=O)c1ccccc1)c1ccccc1 [DBM, Dibenzoylmethane, reference compound] |  |  |  |  | weak overall binding affinity |  | > 1000 nM | 
C[C@]12CCc3c(ccc4cc(O)ccc34)[C@@H]1CC[C@@H]2O [17β-Dihydroequilenin] |  |  |  |  |  |  |  | IC50 (recombinant human ERβ; [1]): 8.9 nM
C[C@]12CC[C@@H]3c4ccc(OS(=O)(=O)O)cc4CC[C@H]3[C@@H]1CCC2=O [E1-3-sulfate, Estrone 3-sulfate] |  |  |  |  | basically devoid of appreciable binding affinity | > 1000 nM |  | binding affinity for ERβ (in words) (recombinant human ERβ; listed as estrone-3-sulfate): virtually no estrogen receptor binding affinity
C[C@]12CC[C@@H]3c4ccc(O)c(O)c4CC[C@H]3[C@@H]1CC[C@@H]2O [4-OH-E2, 4-Hydroxyestradiol] | 70% | 1.3 | 15.9 nM | 56% |  | 15.9 nM |  | RBAα/RBAβ (recombinant human ERα; listed as 4-hydroxyestradiol): about 1.3
COc1cc2c(cc1O)CC[C@@H]1[C@@H]2CC[C@]2(C)C(=O)CC[C@@H]12 [2-MeO-E1, 2-Methoxyestrone] |  |  |  |  | did not have appreciable binding affinity |  |  | IC50 (recombinant human ERα; [3H]E2 10 nM, competitor up to 1000 nM, read-out: ERα IC50): > 1000 nM; binding affinity for ERα (in words) (recombinant human ERα): did not have appreciable binding affinity; RBAα/RBAβ determined by extrapolating the curves (recombinant human ERα; extrapolated from curves of FIGS. 3-7, IC50 not reached): about 1; IC50 (recombinant human ERβ; [1]): > 1000 nM
C[C@]12CC[C@@H]3c4ccc(O)cc4CC[C@H]3[C@@H]1C[C@@H](O)[C@@H]2O [16α-OH-E2 (E3), 16α-Hydroxyestradiol (Estriol), reference compound] |  |  |  |  |  | 25.1 nM |  | preference of binding affinity for ERβ over ERα (recombinant human ERβ; ERβ over ERα, listed as E3): more than five-fold
C[C@]12CC[C@@H]3c4ccc(O)cc4C(=O)C[C@H]3[C@@H]1CC[C@H]2O [6-Keto-E2-17α, 6-Ketoestradiol-17α] | 2% | 2 |  | 1% |  |  | 1120 nM | IC50 (recombinant human ERα): 562 nM; RBAα/RBAβ (recombinant human ERα; listed as 6-ketoestradiol-17α): about 2; RBA for ERα, % of E2-17α (recombinant human ERα; relative to E2-17α): 9%; RBA for ERβ, % of E2-17α (recombinant human ERβ; relative to E2-17α): 25%
C[C@]12CC[C@@H]3c4ccc(O)cc4[C@H](O)C[C@H]3[C@@H]1CC[C@@H]2O [6β-OH-E2, 6β-Hydroxyestradiol] | 1% | 0.5 | 794 nM | 2% |  | 562 nM |  | 
C[C@]12CCc3c(ccc4cc(O)ccc34)[C@@H]1CCC2=O [D-Equilenin] | 2% | 0.3 |  | 7% |  |  | 126 nM | IC50 (recombinant human ERα): 562 nM; ERα RBA (recombinant human ERα; Table 4, Premarin components): 2; Ratio (ERα RBA / ERβ RBA) (recombinant human ERα; Table 4, Premarin components): 0.3; RBA for ERα, % of E1 (recombinant human ERα; relative to E1): 20%; ERβ RBA (recombinant human ERβ; Table 4, Premarin components): 7; RBA for ERβ, % of E1 (recombinant human ERβ; relative to E1): 355%; binding affinity for ERβ, fold higher than E1 (recombinant human ERβ; relative to E1): more than 3 fold
